# Measurements as given in ChEMBL document CHEMBL1201862, “PubChem BioAssay data set” (2004).
# Calls of active or inactive are those of the source.
# What was measured:
# [1] = CEM21 lymphoblast cell cytotoxicity, dose response, cytotoxicity control for viral fusion inhibitor project, CellTiter-Glo luminescence, cherry-picked (AID 652042); type: functional, cell-based;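 also: potency for signal decrease meaning cytotoxicity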
# [2] = ZM109 Env clade C HIV-1 fusion inhibitors, dose response, HeLa effector, CEM target cells, luciferase, cherry-pick (AID 652058); type: functional, cell-based
# Beta-galactosidase = Beta-galactosidase (Escherichia coli, UniProt Q8VNN2); assay: Dose response counterscreen for EBI2 assay utilizing the enzyme, b-galactosidase.; type: functional
# [3] = biological target: Peroxisome proliferator-activated receptor gamma/Nuclear receptor coactivator 3 (Homo sapiens, UniProt P37231); assay: TR-FRET dose response biochemical High Throughput Screening assay for agonists of the steroid receptor coactivator 3 (SRC-3) recruitment by the peroxisome proliferator-activated receptor gamma (PPAR gamma): non-selective agonists. [Related pubchem assays: 1301 (Confirmation screen.), 1048 (Primary screen.)]; type: functional
# [4] = biological target: Peroxisome proliferator-activated receptor gamma/Nuclear receptor coactivator 1 (Homo sapiens, UniProt P37231); assay: TR-FRET dose response biochemical High Throughput Screening assay for agonists of the steroid receptor coactivator 1 (SRC-1) recruitment by the peroxisome proliferator-activated receptor gamma (PPAR gamma): non-selective agonists. [Related pubchem assays (depositor defined):AID1300, AID1808, AID504735, AID631]; type: protein assay
# Major prion protein = Major prion protein (Homo sapiens, UniProt P04156); type: functional, cell-based
# [5] = biological target: Peroxisome proliferator-activated receptor gamma/Nuclear receptor coactivator 2 (Homo sapiens, UniProt P37231); assay: TR-FRET dose response biochemical High Throughput Screening assay for agonists of the steroid receptor coactivator 2 (SRC-2) recruitment by the peroxisome proliferator-activated receptor gamma (PPAR gamma): non-selective agonists. [Related pubchem assays: 1297, 1032 ]; type: functional
# cells [6] = assay: cells
# [7] = Luminescence-based cell-based high throughput dose response assay to identify activators of the DAF-12 from the parasite S. stercoralis (ssDAF-12).; type: functional
# cells [8] = type: functional, cell-based
# cells [9] = type: functional, cell-based; remark: listed apart in the source
# [10] = biological target: T1, Trace amine-associated receptor 1 (Homo sapiens, UniProt Q96RJ0); assay: Counterscreen for agonists of the human trace amine associated receptor 1 (hTAAR1): Fluorescence-based cell-based high throughput dose response assay to identify hTAAR1 agonist that also desensitize TAAR1 receptor response.; type: functional
# T1 sequence (Q96RJ0 whole entry): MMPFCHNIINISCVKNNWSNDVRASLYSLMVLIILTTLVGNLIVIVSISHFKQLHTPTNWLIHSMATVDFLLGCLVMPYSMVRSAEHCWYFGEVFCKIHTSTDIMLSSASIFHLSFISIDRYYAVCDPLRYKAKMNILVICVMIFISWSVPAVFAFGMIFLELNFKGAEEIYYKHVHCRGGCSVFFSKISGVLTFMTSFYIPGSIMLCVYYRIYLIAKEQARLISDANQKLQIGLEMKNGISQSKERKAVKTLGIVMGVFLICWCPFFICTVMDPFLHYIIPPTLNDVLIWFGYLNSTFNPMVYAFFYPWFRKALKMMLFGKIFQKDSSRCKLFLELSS
# [11] = biological target: T1, Trace amine-associated receptor 1; assay: Fluorescence-based cell-based high throughput dose response assay to identify agonists of the human trace amine associated receptor 1 (TAAR1).; type: functional
# HeLa = assay: HeLa cell cytotoxicity, dose response, cytotoxicity control, ATP luminescence, cherry-pick samples (AID 687004); type: functional, cell-based; conditions: Homo sapiens
# Mu-type opioid receptor = Mu-type opioid receptor (Homo sapiens, UniProt P35372); type: functional, cell-based;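 also: U2OS cells with beta-arrestin recruitment to OPRM1 by beta-gal complementation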
# [12] = biological target: 5-hydroxytryptamine receptor 2A (Mus musculus, UniProt P35363); type: functional, cell-based;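 also: CHO-K1 cells with tagged receptor and beta-arrestin; agonist potency measured as compound-induced activation of the receptor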
# [13] = biological target: Matrix metalloproteinase-14 (Homo sapiens, UniProt P50281); assay: Dose Response confirmation of uHTS hits for a small molecule inhibitors of MT1-MMP activation in a fluorescence assay set 1.; type: functional
# [14] = LGR2 antagonists, dose response, cell-based, HEK293, CRE-luciferase reporter, cherry pick, set 2 (AID 743343); type: functional;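 also: transfected cells were stimulated with diluted bursicon conditioned medium after compound addition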
# [15] = MC4R antagonists, dose response, counter-screen for LGR2 antagonist project, cell-based, plate reader, cherry pick (AID 743444); type: functional;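 also: transfected HEK 293 cells stimulated with alpha-MSH peptide; potency of inhibitors of the alpha-MSH evoked signal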
# [16] = HEK293 cell cytotoxicity, dose response, cytotoxicity control, plate reader, cherry-picked samples (AID 743446); type: functional, cell-based
# [17] = HepG2 cell cytotoxicity, dose response, cytotoxicity control, plate reader, cherry-pick, antagonist series (AID 743416); type: functional, cell-based
# [18] = A549 cell cytotoxicity, dose response, cytotoxicity control, plate reader, cherry-pick, antagonist series (AID 743412); type: functional, cell-based
# cells [19] = type: functional, cell-based; conditions: HEK-CNG
# HEK293 [20] = assay: cells; type: functional, cell-based; conditions: Homo sapiens
# Galanin receptor type 3 = Galanin receptor type 3 (Homo sapiens, UniProt O60755); assay: Fluorescence-based cell-based primary high throughput dose response assay to identify antagonists of the Galanin Receptor 3 (GalR3).; type: functional
# HEK293 [21] = assay: NOD1 signaling inhibitors, primary screen, cell-based, luminescence, uHTS (AID 1578); type: functional; conditions: Homo sapiens
# HEK293 [22] = assay: NOD2 signaling inhibitors in MDP-stimulated cells, cell-based, uHTS, luminescence (AID 2001); type: functional; conditions: Homo sapiens
# HEK293 [23] = assay: cells; type: functional, cell-based; conditions: Homo sapiens; remark: listed apart in the source
# [24] = non-specific cell cytotoxicity, dose response, cytotoxicity control for PAX8 inhibitor project, plate reader, dry powder samples (AID 743021); type: functional, cell-based
# Paired box protein Pax-8 = Paired box protein Pax-8 (Homo sapiens, UniProt Q06710); assay: inhibitors of PAX8-driven TPO luciferase reporter, dose response, RMG-I cells, cherry-pick (AID 687027); type: functional, cell-based;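 also: luciferase reporter driven by Pax8 target thyroperoxidase promoter measured by SteadyGlo luminescence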
# [25] = biological target: T2, Small ubiquitin-related modifier 1 (Homo sapiens, UniProt P63165); assay: inhibitors of SUMO1 peptide binding, dose response, biochemical, fluorescence polarization, uHTS hits (AID 624382); type: functional; conditions: read-out: IC50_Mean
# [26] = biological target: T2, Small ubiquitin-related modifier 1; assay: inhibitors of SUMO1 partner interactions, dose response, biochemical, FRET (AID 624383); type: functional; conditions: read-out: IC50_Mean
# [27] = inhibitors of PGC1a acetylation in cells, dose response, cell-based, cherry-picked samples (AID 720514); type: functional;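 also: potency may reflect raised or lowered acetylation signal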
# [28] = P. falciparum Dd2 growth inhibitors, dose response, SYBR Green, cherry-picked samples (AID 1159567); type: functional, cell-based
# [29] = IGROV1 ovarian cancer cell cytotoxicity, dose response, PAX8 inhibitor project, plate reader, dry powder samples (AID 743043); type: functional, cell-based; conditions: IGROV-1
# [30] = cytotoxicity in OVCAR8 ovarian cancer cells, dose response, PAX8 project, cell-based, plate reader, dry powder samples (AID 743197); type: functional; conditions: OVCAR-8
# [31] = HepG2 cell cytotoxicity, dose response, cytotoxicity control, cherry-picked samples (AID 1159577); type: functional, cell-based
# [32] = C. albicans growth with fluconazole, confirmation, fluorescence, retest (AID 2467); type: functional, cell-based
# [33] = biological target: T3, Methionyl-tRNA synthetase, putative (Trypanosoma brucei brucei, UniProt Q38C91); type: functional, Trypanosoma brucei brucei strain 927/4 GUTat10.1
# T3 sequence (Q38C91 whole entry): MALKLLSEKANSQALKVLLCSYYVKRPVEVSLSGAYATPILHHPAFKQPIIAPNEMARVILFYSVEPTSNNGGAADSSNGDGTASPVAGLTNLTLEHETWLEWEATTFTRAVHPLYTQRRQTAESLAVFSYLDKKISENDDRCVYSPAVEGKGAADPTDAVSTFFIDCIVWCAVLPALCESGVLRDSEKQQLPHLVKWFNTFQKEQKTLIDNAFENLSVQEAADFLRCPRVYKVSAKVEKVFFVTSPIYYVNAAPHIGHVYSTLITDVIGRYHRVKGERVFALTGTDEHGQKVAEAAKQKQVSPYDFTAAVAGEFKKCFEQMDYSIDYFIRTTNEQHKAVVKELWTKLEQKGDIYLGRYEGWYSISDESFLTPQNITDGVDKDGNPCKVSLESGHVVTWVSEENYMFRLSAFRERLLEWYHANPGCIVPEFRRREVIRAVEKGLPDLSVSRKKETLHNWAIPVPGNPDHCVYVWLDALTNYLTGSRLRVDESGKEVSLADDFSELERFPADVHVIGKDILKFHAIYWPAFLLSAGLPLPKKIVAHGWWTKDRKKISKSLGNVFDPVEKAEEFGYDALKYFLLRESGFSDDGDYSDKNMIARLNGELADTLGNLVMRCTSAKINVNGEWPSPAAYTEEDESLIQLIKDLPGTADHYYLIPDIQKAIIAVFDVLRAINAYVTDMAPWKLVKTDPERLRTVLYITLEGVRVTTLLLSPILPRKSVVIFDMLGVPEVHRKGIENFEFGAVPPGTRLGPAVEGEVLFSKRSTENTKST
# [34] = biological target: T3, Methionyl-tRNA synthetase, putative; type: functional, Trypanosoma brucei brucei strain 927/4 GUTat10.1; remark: listed apart in the source
# [35] = NIH-3T3 fibroblast cytotoxicity, dose response, cytotoxicity control, cell-based, fluorescence, Alamar Blue, secondary assay (AID 2327); type: functional;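 also: NIH-3T3 mouse fibroblasts cultured with fluconazole at 8 µg/mL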
# [36] = Counterscreen for inhibitors of Trypanosoma brucei methionyl tRNA synthetase (MetRS): Luminescence-based cell-based high throughput dose response assay to identify compounds that are cytotoxic to Jurkat human T lymphocyte cells.; type: functional
smiles,measurement,setting,value
CC1(C)N=C(N)N=C(N)N1CCCCc1ccccc1,AC50,[1],1.63 µM (active)
same,AC50,[2],1.34 µM (active)
CCOC(=O)N1CCN(C(=O)COc2ccc(Br)cc2)CC1,IC50,Beta-galactosidase,> 80 µM (inactive)
Cc1ccc(Sc2c(O)c3ccccc3n(C)c2=O)cc1,EC50,[3],> 79.4 µM (not active)
same,EC50,[4],> 79.4 µM (inactive)
same,IC50,Major prion protein,7.12 µM (active)
same,EC50,[5],> 79.4 µM (not active)
same,IC50,cells [6],> 138 µM (inactive)
COc1ccc(-c2cn3ccccc3n2)cc1OC,IC50,[7],> 67.5 µM (inactive)
Cc1ccc(/C=C/C(=O)N2CCCN(C(=O)/C=C/c3ccc(C)cc3)CC2)cc1,IC50,Beta-galactosidase,> 80 µM (inactive)
Cc1cc(C)c(C#N)c(SCC(=O)c2cc(C)n(CCc3ccccc3)c2C)n1,IC50,cells [8],> 29.9 µM (inactive)
same,EC50,cells [9],> 29.9 µM (inactive)
same,IC50,[10],4.68 µM (active)
same,EC50,[11],1.15 µM (active)
COc1ccc(N(CC(=O)NCCSCc2ccc(C)cc2)S(=O)(=O)c2ccccc2)cc1,AC50,HeLa,> 52 µM (inactive)
CC1CC(C)CN(CCOc2cccc(Cl)c2Cl)C1 (stereo not drawn),EC50,Mu-type opioid receptor,92.5 µM (inactive)
same,EC50,[12],281 nM (active)
CN1C2=CC=CC=CC2=[N+](C)C12C=CC(=[N+]([O-])[O-])C=C2[N+](=O)[O-] (stereo not drawn),IC50,[13],54.2 µM (inactive)
CCC(Sc1ccc2nnc(-c3ccc(F)cc3)n2n1)C(=O)O (stereo not drawn),IC50,Major prion protein,13 µM (inactive)
same,IC50,cells [6],> 138 µM (inactive)
COc1cccc2c1C(=O)O/C2=C/c1ccc2c(c1)OCO2,AC50,[14],2.1 µM (active)
same,AC50,[15],2.69 µM (active)
same,AC50,[16],> 52 µM (inactive)
same,AC50,[17],> 52 µM (inactive)
same,AC50,[18],> 52 µM (inactive)
Cc1oc(-c2ccc(Cl)cc2)nc1CSCC(=O)NC1CCN(Cc2ccccc2)CC1,EC50,cells [19],> 29.9 µM (inactive)
same,IC50,HEK293 [20],9.78 µM (active)
same,IC50,Galanin receptor type 3,1.29 µM (active)
same,EC50,HEK293 [21],2.62 µM (active)
same,IC50,HEK293 [22],3.08 µM (active)
same,IC50,HEK293 [23],1.68 µM (active)
Cc1ccc(CCNc2ncnc(Cl)c2N)cc1,EC50,cells [19],> 29.9 µM (inactive)
same,IC50,Galanin receptor type 3,0.626 µM (active)
Cc1ccc(NC(=O)CN2CCN(c3ccccn3)CC2)cc1S(=O)(=O)N(C)C,EC50,Mu-type opioid receptor,92.5 µM (inactive)
same,EC50,[12],685 nM (active)
O=C(NCc1cc(C(F)(F)F)ccc1Cl)c1cccc2c1C(=O)c1ccc(N3CCC(N4CCCCC4)CC3)cc1S2(=O)=O,AC50,[24],19.7 µM (active)
same,AC50,Paired box protein Pax-8,11.7 µM (active)
same,IC50,[25],> 66.6 µM (inactive)
same,IC50,[26],11.1 µM (active)
COc1ccc2c3c(n(C)c2c1)[C@H](CO)NCC31CCN(Cc2cc(-c3ccccc3)on2)CC1,AC50,[24],43 µM (active)
same,AC50,[27],12.9 µM (active)
same,AC50,Paired box protein Pax-8,7.96 µM (active)
same,AC50,[28],1.64 µM (active)
same,AC50,[29],25.1 µM (active)
same,AC50,[30],24.1 µM (active)
same,AC50,[31],7.77 µM (active)
COc1cccc(-c2ccc3c(c2)[C@H]2[C@H](CCN2C(=O)Cc2ccncc2)[C@H](CO)N3C)c1,AC50,HeLa,> 52 µM (inactive)
Cc1ccc(SCCC(=O)N/N=C/c2ccccc2O)cc1,EC50,[32],4.74 µM (active)
same,IC50,[33],4.49 µM (active)
same,IC50,[34],4.39 µM (active)
same,EC50,[35],> 160 µM (inactive)
same,IC50,[36],16.1 µM (inactive)
CN1C(=O)/C(=C2/C=Cc3ccccc3N2CCCS(=O)(=O)O)SC1=S,IC50,[13],> 80 µM (inactive)
